In US20250186410A1, “DUAL INHIBITORS OF TRYPTOPHAN DIOXYGENASES (IDO1 AND TDO) AND THEIR USE IN THERAPY” (ANTIDO THERAPEUTICS INTERNATIONAL SÀRL, priority 2022, published 2025):

What was measured:
[1] = system: immune cells in LLC tumors; assay: Flow cytometry immune cell analysis, LLC tumors; assay type: in vivo, mouse; settings: AT-0174 170 mg/kg, epacadostat 200 mg/kg P.O. daily
Protocol: (§1) LLC or LLC-CR (1×10^6) cells were subcutaneously injected into the flank of C57B6/J male and female mice (5 mice per group, age 6-8 weeks, Jackson laboratory) and allowed to grow for 3 days (average tumor size=50 mm^3) before being treated with the selective IDO1 inhibitor epacadostat at 200 mg/kg daily or with AT-0174 at 170 mg/kg daily (a dual inhibitor of IDO1 and TDO enzymes). Both compounds were administered via oral gavage (P.O.) and diluted with 95% water+5% methylcellulose (0.5%) and stored at −20° C. Compound was prepared every 5 days. Methyl cellulose (95+5%) was used as control (“Veh”). Tumor growth was evaluated every 2 days by measuring tumor volume with calipers according to the following formula: tumor volume=width^2×length×0.5. At the end of the study, mice were sacrificed and the blood, tumor, and lymph nodes were collected and processed for KYN and tryptophan (TRP) measurement and immune cell assessment respectively.
(§2) Tumors or lymph nodes were collected from mice and homogenized using syringe plungers. Mesh filters (40 μM) were placed on 15 mL or 50 mL tubes and the tissue suspensions were filtered. Cell filtrates were spun down at 1000 g. Red blood cell lysis buffer (1% […]) was added into the cell pellets and resuspended. Cell pellets were washed using PBS and isolated. Tumors were isolated using EasySep™ Mouse TIL (CD45) Positive Selection Kit (Stemcell Technologies). To detect regulatory T cells (T-regs) or natural killer cells (NKs), EasySep™ Mouse CD25 Regulatory T Cell Positive Selection Kit and EasySep™ Mouse CD49b Positive Selection Kit were used, respectively. Isolated cells were stained according to manufacturer's instructions. Cells were also fixed with 2% paraformaldehyde and analysis was done using the CytoFLEX Flow Cytometer (Beckman). All flow antibodies were obtained from Biolegend.

[2] = system: LLC-CR (cisplatin-resistant cell tumours); assay: Tumor growth in syngeneic mouse model, LLC-CR allografts; assay type: in vivo; settings: for tumor weight: LLC-CR allograft mice, FIG. 2C; for tumor volume, Mean: LLC-CR tumours, AT-0174 170 mg/kg, epacadostat 200 mg/kg P.O. daily; for Tumor growth: cisplatin-resistant tumor group, FIG. 2B
Protocol: Cisplatin resistant mouse cell lines (LLC-CR) were derived from LLC (mouse Lewis lung cancer cells (epidermoid carcinoma), ATCC) through treatment with increasing doses of cisplatin intermittently. LLC-CR clones were maintained in half GI50 dosage concentration. […] The cultures were observed daily and allowed to grow until they reached an initial cell density. […] After the cells recovered from cisplatin toxicity, they were treated again with increasing dosage of cisplatin for 24 h. These cells are seeded at 500-1000 cells per dish and cultured for 5-7 days. Clones are selected and expanded as well as tested for cisplatin sensitivity. Similar processes of exposure are carried out for a third and fourth time to generate higher resistant clones. At the end, the resistance clones (LLC-CR) were maintained in media completed with 1 μg/ml (half GI50 dosage) of cisplatin. […] Both compounds were administered via oral gavage (P.O.) and diluted with 95% water+5% methylcellulose (0.5%) and stored at −20° C. Compound was prepared every 5 days. Methyl cellulose (95+5%) was used as control (“Veh”). […] At the end of the study, mice were sacrificed and the blood, tumor, and lymph nodes were collected and processed for KYN and tryptophan (TRP) measurement and immune cell assessment respectively. In this example, LLC-CR from the Lewis lung mouse cell line (LLC; see methods) was used to determine, in vivo, the effect of IDO1 or dual IDO1/TDO inhibition on tumor growth. Mice were inoculated with either LLC or LLC-CR and treated with epacadostat (200 mg/kg P.O. 1/day) or AT-0174 (170 mg/kg P.O. 1/day).

[3] = system: cisplatin-resistant LLC tumors; assay: Survival of mice with cisplatin-resistant LLC tumors; assay type: in vivo, mouse; settings: for First Death / Maximal Survival / Median Survival Time: LLC-CR, C57B6/J mice, epacadostat 200 mg/kg, AT-0174 170 mg/kg P.O., anti-PD-1 10 mg/kg i.p. every 3 days
Protocol: To investigate the synergy of immune response on tumors between the dual IDO1/TDO inhibitor AT-0174 and an immune checkpoint inhibitor, the compound was tested in mice with cisplatin-resistant lung cancer tumors with and without with anti-PD1 antibody co-treatment.
LLC-CR (1×10^6) cells were subcutaneously injected into the flank of C57B6/J mice (6 mice per group, age 8 weeks) and allowed to grow for 3 days (average tumor size=50 mm^3) before being treated with IDO1 inhibitor epacadostat at 200 mg/kg daily (a supra-maximal dose) or with AT-0174 at 170 mg/kg. Both compounds were administered via oral gavage (P.O.) in 95% water+5% methylcellulose (0.5%). Anti-mouse PD-1 MAb clone RMPi-14 was used as checkpoint inhibitor and administered via intraperitoneal injection (i.p.) at a dose of 10 mg/kg every 3 days.

[4] = system: kynurenine (KYN) and tryptophan (TRP) levels in mouse serum; assay: KYN and TRP measurements, LLC-CR-bearing mice; assay type: in vivo; settings: AT-0174 170 mg/kg, epacadostat 200 mg/kg P.O. daily
Protocol: as §1
(§3) Blood samples were collected via cardiac puncture from mice at the time of sacrifice and the Biochrom 30 amino acid analyzer (using ion exchange chromatography) was used to analyze free amino acids in samples. Briefly, 200 μL of serum extract and equal volume of 30% v/v deproteinization agent (sulfosalicylic acid) were mixed and vortexed for 10 s. Samples were then incubated at 55° C. for 20 min, spin down at 2500 g for 20 min at 4° C. Supernatant were collected, filtered through a 0.22 μm filter, and injected into the Biochrom 30. Values were reported compared to normal ranges in controls. Samples used in ion exchange chromatography are separated in an analytical fashion with an ion exchange column and buffers of increasing pH and ionic strength. After post-column derivatization with Ninhydrin, and colorimetric intensity recordings at 570 nm and 440 nm, the amino acids separated by chromatography were detected. Amino acid concentration was calculated by comparing the peak area of a particular amino acid to the peak area of an internal standard-AEC of known concentration, and then multiplying by its specific response factor from calibration.

[5] = system: immune cells in LLC-CR tumors; assay: Flow cytometry immune cell analysis, LLC-CR tumors; assay type: in vivo, mouse; settings: AT-0174 170 mg/kg, epacadostat 200 mg/kg P.O. daily
Protocol: as §1, §2

[6] = system: kynurenine (KYN) and tryptophan (TRP) levels in mouse serum; assay: KYN and TRP measurements, LLC-bearing mice; assay type: in vivo; settings: AT-0174 170 mg/kg, epacadostat 200 mg/kg P.O. daily
Protocol: as §1, §3

SMILES | CD3^+ CD8^+ T-Effector [1] | CD3^+ CD49^+ NKG2D^+ NK Cells [1] | CD4^+ CD25^+ FoxP3^+ T-regs [1] | tumor weight [2] | tumor volume, Mean ([2]; day 1) [mm^3] | tumor volume, Mean ([2]; day 2) [mm^3] | tumor volume, Mean ([2]; day 3) [mm^3] | tumor volume, Mean ([2]; day 4) [mm^3] | tumor volume, Mean ([2]; day 5) [mm^3] | tumor volume, Mean ([2]; day 6) [mm^3] | tumor volume, Mean ([2]; day 7) [mm^3] | tumor volume, Mean ([2]; day 8) [mm^3] | tumor volume, Mean ([2]; day 9) [mm^3] | tumor volume, Mean ([2]; day 10) [mm^3] | tumor volume, Mean ([2]; day 11) [mm^3] | tumor volume, Mean ([2]; day 12) [mm^3] | tumor volume, Mean ([2]; day 13) [mm^3] | tumor volume, Mean ([2]; day 15) [mm^3] | Tumor growth [2] | First Death [3] [days] | other results
Nc1noc2nc(Cl)c(F)cc12 [Compound 66, 6-Chloro-5-fluoroisoxazolo[5,4-b]pyridin-3-amine] | 5.38 ± 0.79 | 3.58 ± 0.70 | 10.05 ± 0.79 | Significant reduction in tumor weight | 57.0 | 93.0 | 102.0 | 115.0 | 135.0 | 153.0 | 185.0 | 198.0 | 213.0 | 228.0 | 272.0 | 280.0 | 310.0 | 360.0 | significantly reduced | 36 | tumor volume, Mean ([2]; day 14): 345.0 mm^3; effect on survival ([3]; LLC-CR mice, given alone): increased survival to a greater extent than the selective agent; Maximal Survival [3]: 43 days; Median Survival Time [3]: 36 days; KYN/TRP Ratio [4]: 1.18 ± 0.31; Kynurenine [4]: 50 ± 9.7; Tyrptophan [4]: 85.8 ± 8.3; CD3^+ CD8^+ T-Effector [5]: 8.13 ± 0.94; CD3^+ CD49^+ NKG2D^+ NK Cells [5]: 7.44 ± 0.62; CD4^+ CD25^+ FoxP3^+ T-regs [5]: 5.75 ± 1.53; KYN/TRP Ratio [6]: 1.11 ± 0.17; Kynurenine [6]: 64.2 ± 9.3; Tyrptophan [6]: 59.2 ± 4.4
NS(=O)(=O)NCCNc1nonc1C(=NO)Nc1ccc(F)c(Br)c1 [Epacadostat, epacadostat, reference compound] | 5.16 ± 0.65 | 2.66 ± 0.57 | 13.27 ± 0.83 | reduction of the total tumor weight | 57.0 | 89.0 | 96.0 | 126.0 | 137.0 | 158.0 | 212.0 | 291.0 | 340.0 | 390.0 | 430.0 | 490.0 | 511.0 | 565.0 | significantly reduced | 24 | Maximal Survival [3]: 35 days; Median Survival Time [3]: 25 days; KYN/TRP Ratio [4]: 2.01 ± 0.32; Kynurenine [4]: 81.8 ± 11.9; Tyrptophan [4]: 43 ± 5.8; CD3^+ CD8^+ T-Effector [5]: 4.06 ± 0.63; CD3^+ CD49^+ NKG2D^+ NK Cells [5]: 2.38 ± 0.42; CD4^+ CD25^+ FoxP3^+ T-regs [5]: 12.60 ± 0.94; KYN/TRP Ratio [6]: 1.35 ± 0.23; Kynurenine [6]: 74.6 ± 7.7; Tyrptophan [6]: 58.6 ± 5.6
